According to patent US20090325952A1, “PYRAZOLO[3,4-B]PYRIDINE COMPOUNDS, AND THEIR USE AS PDE4 INHIBITORS” (Glaxo Group Limited, priority 2006, published 2009):

What was measured:
[1] = target: T1, PDE4B (human recombinant) (Homo sapiens, UniProt Q07343); assay: Inhibition of PDE4B activity (FP and/or SPA assay); type: biochemical; details: generally FP assay; one reading or average of n readings; read-out: PDE4B pIC50 (generally in FP assay) (±about 0.5) (converted)
T1 construct: made in house; host or cells: Saccharomyces cerevisiae strain GL62 (PDE-deficient yeast)
T1 sequence (Q07343 1-564 isoform Q07343-2): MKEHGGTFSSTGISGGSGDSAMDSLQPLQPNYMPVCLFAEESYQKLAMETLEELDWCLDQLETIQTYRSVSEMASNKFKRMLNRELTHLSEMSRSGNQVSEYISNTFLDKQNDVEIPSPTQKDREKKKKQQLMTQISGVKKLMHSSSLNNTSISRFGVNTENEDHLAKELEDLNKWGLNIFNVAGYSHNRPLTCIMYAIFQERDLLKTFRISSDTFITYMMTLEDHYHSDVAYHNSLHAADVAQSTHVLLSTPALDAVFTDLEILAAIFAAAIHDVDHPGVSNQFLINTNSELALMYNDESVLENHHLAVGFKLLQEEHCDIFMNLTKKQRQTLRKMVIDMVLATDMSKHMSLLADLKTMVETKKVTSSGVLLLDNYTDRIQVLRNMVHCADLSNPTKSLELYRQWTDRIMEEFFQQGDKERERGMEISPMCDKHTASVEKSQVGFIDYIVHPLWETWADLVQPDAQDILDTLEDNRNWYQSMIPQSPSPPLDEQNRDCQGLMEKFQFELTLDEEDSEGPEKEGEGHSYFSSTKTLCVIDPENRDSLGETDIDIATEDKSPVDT
From the text: Human recombinant PDE4B, in particular the 2B splice variant thereof (HSPDE4B2B), is disclosed in WO 94/20079 and also M. M. McLaughlin et al., “A low Km, rolipram-sensitive, cAMP-specific phosphodiesterase from human brain: cloning and expression of cDNA, biochemical characterisation of recombinant protein, and tissue distribution of mRNA”, J. Biol. Chem., 1993, 268, 6470-6476. For example, in Example 1 of WO 94/20079, human recombinant PDE4B is described as being expressed in the PDE-deficient yeast Saccharomyces cerevisiae strain GL62, e.g. after induction by addition of 150 uM CuSO4, and 100,000×g supernatant fractions of yeast cell lysates are described for use in the harvesting of PDE4B enzyme.
The ability of compounds to inhibit catalytic activity at PDE4B or 4D (human recombinant), PDE3 (from bovine aorta), PDE5 (human recombinant) or PDE6 (from bovine retina) can optionally be determined by Scintillation Proximity Assay (SPA) in a 96-well format.
Test compounds (as a solution in DMSO, suitably about 2 microlitre (ul) volume of DMSO solution) are preincubated at ambient temperature (room temperature, e.g. 19-23° C.) in Wallac Isoplates (code 1450-514) with PDE enzyme in 50 mM Tris-HCl buffer pH 7.5, 8.3 mM MgCl2, 1.7 mM EGTA, 0.05% (w/v) bovine serum albumin for 10-30 minutes (usually 30 minutes). The enzyme concentration is adjusted so that no more than 20% hydrolysis of the substrate defined below occurs in control wells without compound, during the incubation. For the PDE3, PDE4B and PDE4D assays, [5′,8-^3H]Adenosine 3′,5′-cyclic phosphate (Amersham Pharmacia Biotech, code TRK.559; or Amersham Biosciences UK Ltd, Pollards Wood, Chalfont St Giles, Buckinghamshire HP8 4SP, UK) is added to give 0.05uCi per well and about 10 nM final concentration. For the PDE5 and PDE6 assays, [8^−3H]Guanosine 3′,5′-cyclic phosphate (Amersham Pharmacia Biotech, code TRK.392) is added to give 0.05uCi per well and about 36 nM final concentration. Plates containing assay mixture, suitably approx. 100 ul volume of assay mixture, are mixed on an orbital shaker for 5 minutes and incubated at ambient temperature for 1 hour. Phosphodiesterase SPA beads (Amersham Pharmacia Biotech, code RPNQ 0150) are added (about 1 mg per well) to terminate the assay. Plates are sealed and shaken and allowed to stand at ambient temperature for 35 minutes to 1 hour (suitably 35 minutes) to allow the beads to settle. Bound radioactive product is measured using a WALLAC TRILUX 1450 Microbeta scintillation counter. For inhibition curves, 10 concentrations (e.g. 1.5 nM-30 uM) of each compound are assayed. Curves are analysed using ActivityBase and XLfit (ID Business Solutions Limited, 2 Ocean Court, Surrey Research Park, Guildford, Surrey GU2 7QB, United Kingdom) Results are expressed as pIC50 values.
The ability of compounds to inhibit catalytic activity at PDE4B (human recombinant) or PDE4D (human recombinant) can optionally be determined by IMAP Fluorescence Polarisation (FP) assay (IMAP Explorer kit, available from Molecular Devices Corporation, Sunnydale, Calif., USA; Molecular Devices code: R8062) in 384-well format.
The IMAP FP assay is able to measure PDE activity in an homogenous, non-radioactive assay format. The FP assay uses the ability of immobilised trivalent metal cations, coated onto nanoparticles (tiny beads), to bind the phosphate group of Fl-AMP that is produced on the hydrolysis of fluorescein-labelled (Fl) cyclic adenosine mono-phosphate (Fl-cAMP) to the non-cyclic Fl-AMP form. […] Binding of Fl-AMP product to the beads (coated with the immobilised trivalent cations) slows the rotation of the bound Fl-AMP and leads to an increase in the fluorescence polarisation ratio of parallel to perpendicular light. Inhibition of the PDE reduces/inhibits this signal increase. […]

[2] = tested on: TNF-α (TNF-alpha) production in human PBMC (peripheral blood mononuclear cells); assay: Inhibition of TNF-alpha production in human PBMC assay (MSD technology); type: cell-based; details: Homo sapiens, PBMC, LPS stimulated, measured and/or mean of n measurements, read-out: PBMC pIC50 (MSD assay), inhibition of TNF-α production (converted)
Method: A 96-well plate (96 MicroWell™ Plates Nunclon™Δ-High Flange Design, Fisher Scientific UK, Bishop Meadow Road, Loughborough LE 11 5 RG, Leicestershire, UK) is prepared by initially adding to column 1 ca. 10 mM of test compound dissolved in DMSO. […] The compound is further diluted with DMSO into columns 2 to 9 by 8 successive 3-fold dilutions using the Biomek® FX Laboratory Automation Workstation (Beckman Coulter, Inc., 4300 N. Harbor Boulevard, P.O. Box 3100, Fullerton, Calif. 92834-3100, USA). Column 10 is used as a DMSO negative control (High Signal, 0% response), whilst column 11, which contains 10 mM of the PDE4 inhibitor roflumilast, is used as a positive control (Low Signal, 100% response). About 1 μl (about 1 ul) of compound is transferred to the compound plate using the Biomek® FX.
PBMC cells (peripheral blood mononuclear cells) are prepared from heparinised human blood (using 1% v/v Heparin Sodium 10001 U/ml Endotoxin Free, Leo Laboratories Ltd., Cashel Road, Dublin 12. Ireland, Cat No: PL0043/0149) from normal volunteers using the Accuspin™ System-Histopaque®-1077 essentially (Sigma-Aldrich Company Ltd., The Old Brickyard New Rd, Gillingham, Dorset SP8 4XT, UK). About 20 ml of blood is overlaid onto 15 ml Histopaque® in Accuspin™ tubes. The tube is then centrifuged at about 800 g for ca. 20 minutes. The cells are collected from the interface, washed by centrifugation (ca. 1300 g, ca. 10 minutes) and resuspended in RPMI1640 medium (Low endotoxin RPMI1640 medium, Cat No: 31870-025, Invitrogen Corporation Invitrogen Ltd, 3 Fountain Drive, Inchinnan Business Park, Paisley PA4 9RF, UK) containing 10% foetal calf serum, 1% L-glutamine (Invitrogen Corporation, Cat No: 25030024) and 1% penicillin/streptomycin (Invitrogen Corporation, Cat No: 15140-122). Viable cells are counted by trypan blue staining and diluted to 1×10^6 viable cells/ml. About 50 μl (about 50 ul) of diluted cells and about 75 μl (about 75 ul) of LPS (ca. 1 ng/ml final; Sigma Cat No: L-6386) are added to the compound plate, which is then incubated at 37° C., 5% CO2, for 20 hours.
The supernatant is removed and the concentrations of TNF-α are determined by electrochemiluminescence assay using the Meso Scale Discovery (MSD) technology (Meso Scale Discovery, 9238 Gaither Road, Gaithersburg, Md. 20877, USA). See the “TNF-α (TNF-alpha) MSD Assay” described below for typical details.
For the following Examples, which are compounds of formula (I) or salts thereof, and generally when using the one of the above assays, or a generally similar or generally analogous assay, the measured and/or mean pIC50 values for inhibition of TNF-α (TNF-alpha) production in PBMCs are generally as follows (subject to a possibly-large variability or error):
Using the Biomek FX, 25 μl (25 ul) of MSD Human Serum Cytokine Assay Diluent (Meso Scale Discovery, 9238 Gaither Road, Gaithersburg, Md. 20877) is added to a 96-well High-Bind MSD plate pre-coated with anti-hTNF alpha capture antibody (MA6000) and then incubated for 24 hours at 4° C. to prevent non-specific binding. About 20 μl (ul) of supernatant from the PBMC plate or about 40 μl (ul) of supernatant from the whole blood (WB) plate are then transferred from columns 1-11 to columns 1-11 of the MSD plate using the Biomek FX. About 20 μl (ul) of TNF-α standard (Cat No. 210-TA; R&D Systems Inc., 614 McKinley Place NE, Minneapolis, Minn. 55413, USA) are added to column 12 of the MSD plate to generate a standard calibration curve (about 0 to 30000 pg/ml final).
For the Whole Blood assay, plates are washed after 2 hours shaking with a Skanwasher 300 version B (Skatron Instruments AS. PO Box 8, N-3401 Lier, Norway). About 40 μl (ul) of diluted sulfo-TAG antibody (ca. […] final) is added, the plates are shaken at room temperature for 1 hours, and the plates washed again as above. About 150 μl (ul) of Read Buffer T (2×) is added to the plates, which are then read on a MSD Sector 6000. […]

CCc1nc2c(cnn2CC)c(NC2CCN(C(N)=O)CC2)c1CNC(=O)c1ccc(CCCCOCCCCN2CCOCC2)cc1 [Example 23, 4-({1,6-diethyl-5-[({[4-(4-{[4-(4-morpholinyl)butyl]oxy}butyl)phenyl]carbonyl}amino)methyl]-1H-pyrazolo[3,4-b]pyridin-4-yl}amino)-1-piperidinecarboxamide]
IC50 [1]: ~79.4 pM
IC50 [2]: ~631 pM
